Test results from US9573957B2 (Boehringer Ingelheim International GmbH, priority 2013, dated 2017).

Tests used:
human LTA4 hydrolase = human LTA4 hydrolase (Homo sapiens (Human), UniProt P09960); assay: LTA4H Enzyme assay (peptidase, Arg-AMC cleavage); format: biochemical; settings: LTA4H Enzyme 1 nM, Arg-AMC substrate 50 μM, room temperature 1 h, fluorescence
Method in brief: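 Peptidase activity of human LTA4H (1 nM final) on Arg-AMC (50 μM final), with compound, 1 h at room temperature. Buffer: 50 mM Tris-HCl pH 7.5, 100 mM KCl, 0.5% BSA.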

[1] = tested on: synthesis of LTB4 in human whole blood; assay: LTB4 production inhibition assay in human whole blood (HWB); format: cell-based; settings: heparinized human whole blood, 15 min at 37° C., Calcimycin 20 μM 30 min, plasma LTB4 by HTRF
Method in brief: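 Heparinized human whole blood preincubated with compound 15 min at 37° C, then stimulated with calcimycin (20 μM final) for 30 min at 37° C. Plasma separated by centrifugation; LTB4 measured by antibody-based homogeneous time-resolved fluorescence.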

Sequence of human LTA4 hydrolase (P09960 whole entry): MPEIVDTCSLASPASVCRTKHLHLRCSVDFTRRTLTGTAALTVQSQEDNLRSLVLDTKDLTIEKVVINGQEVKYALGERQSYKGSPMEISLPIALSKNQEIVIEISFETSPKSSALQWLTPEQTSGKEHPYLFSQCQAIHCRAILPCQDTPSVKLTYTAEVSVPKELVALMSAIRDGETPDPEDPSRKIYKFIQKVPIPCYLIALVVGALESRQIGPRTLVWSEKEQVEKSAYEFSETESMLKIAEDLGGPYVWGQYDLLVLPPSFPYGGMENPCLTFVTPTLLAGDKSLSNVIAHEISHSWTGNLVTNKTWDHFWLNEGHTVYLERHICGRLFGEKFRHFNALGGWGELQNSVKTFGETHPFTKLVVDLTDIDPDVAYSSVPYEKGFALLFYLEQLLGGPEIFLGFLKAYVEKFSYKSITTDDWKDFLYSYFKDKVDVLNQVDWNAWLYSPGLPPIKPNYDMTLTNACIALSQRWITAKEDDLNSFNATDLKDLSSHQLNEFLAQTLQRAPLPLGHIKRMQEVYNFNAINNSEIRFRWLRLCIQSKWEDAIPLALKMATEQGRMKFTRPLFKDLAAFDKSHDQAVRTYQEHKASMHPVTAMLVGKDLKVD

Structure (SMILES) | IC50 (human LTA4 hydrolase) | IC50 [1]
CC(=O)N[C@H]1CCN(Cc2ccc3cc(Oc4ccc(-c5ccn[nH]5)cn4)ccc3c2)C1 [Example 13, N-((S)-1-{6-[5-(2H-Pyrazol-3-yl)-pyridin-2-yloxy]-naphthalen-2-ylmethyl}-pyrrolidin-3-yl)-acetamide] | 0.79 nM | 290 nM
CC1(O)CC(C(=O)N2CCN(Cc3ccc4cc(Oc5ccc(-c6ccn[nH]6)cn5)ccc4n3)CC2)C1 (stereo not shown) [Example 150, (3-Hydroxy-3-methyl-cyclobutyl)-(4-{6-[5-(2H-pyrazol-3-yl)-pyridin-2-yloxy]-quinolin-2-ylmethyl}-piperazin-1-yl)-methanone] | 3.4 nM | 490 nM
OC1CCN(Cc2ccc3cc(Oc4ncc(-c5ccn[nH]5)cn4)ccc3c2)CC1 [Example 26, 1-{6-[5-(2H-Pyrazol-3-yl)-pyrimidin-2-yloxy]-naphthalen-2-ylmethyl}-piperidin-4-ol] | 2.3 nM | 240 nM
C[C@H](O)C(=O)N1CCN(Cc2ccc3cc(Oc4ncc(-c5ccn[nH]5)cn4)ccc3c2)CC1 [Example 30, (S)-2-Hydroxy-1-(4-{6-[5-(2H-pyrazol-3-yl)-pyrimidin-2-yloxy]-naphthalen-2-ylmethyl}-piperazin-1-yl)-propan-1-one] | 1.3 nM | 230 nM
O=C(N1CC2CCC(C1)N2Cc1ccc2cc(Oc3ccc(-c4ccn[nH]4)cn3)ccc2n1)C1(O)CC1 [Example 56, (1-Hydroxy-cyclopropyl)-(8-{6-[5-(2H-pyrazol-3-yl)-pyridin-2-yloxy]-quinolin-2-ylmethyl}-3,8-diaza-bicyclo[3.2.1]oct-3-yl)-methanone] | 0.53 nM | 150 nM
CC(=O)NC1CN(Cc2ccc3cc(Oc4ccc(-c5ccn[nH]5)cn4)ccc3c2)C1 [Example 3, N-(1-{6-[5-(2H-Pyrazol-3-yl)-pyridin-2-yloxy]-naphthalen-2-ylmethyl}-azetidin-3-yl)-acetamide] | 0.5 nM | 200 nM
OC[C@@H]1CCN(Cc2ccc3cc(Oc4ccc(-c5ccn[nH]5)cn4)ccc3c2)C1 [Example 22, ((R)-1-{6-[5-(2H-Pyrazol-3-yl)-pyridin-2-yloxy]-naphthalen-2-ylmethyl}-pyrrolidin-3-yl)-methanol] | 0.64 nM | 130 nM
CC(=O)N1CCCN(Cc2coc3cc(Oc4ccc(-c5ccn[nH]5)cn4)ccc23)CC1 [Example 97, 1-(4-{6-[5-(2H-Pyrazol-3-yl)-pyridin-2-yloxy]-benzofuran-3-ylmethyl}-[1,4]diazepan-1-yl)-ethanone] | 0.58 nM | 210 nM
O[C@@H]1CCN(Cc2ccc3cc(Oc4ccc(-c5ccn[nH]5)cn4)ccc3c2)C1 [Example 6, (R)-1-{6-[5-(2H-Pyrazol-3-yl)-pyridin-2-yloxy]-naphthalen-2-ylmethyl}-pyrrolidin-3-ol] | 0.57 nM | 130 nM
OCC1CCN(Cc2ccc3cc(Oc4ccc(-c5ccn[nH]5)cn4)ccc3c2)CC1 [Example 17, (1-{6-[5-(2H-Pyrazol-3-yl)-pyridin-2-yloxy]-naphthalen-2-ylmethyl}-piperidin-4-yl)-methanol] | 0.75 nM | 160 nM
O=C1CCCN1C1CCN(CCC2COc3cc(Oc4ccc(-c5ccn[nH]5)cn4)ccc32)CC1 (stereo not shown) [Example 68, 1-[1-(2-{6-[5-(2H-Pyrazol-3-yl)-pyridin-2-yloxy]-2,3-dihydro-benzofuran-3-yl}-ethyl)-piperidin-4-yl]-pyrrolidin-2-one] | 1.1 nM | 270 nM
CC(C)C(=O)N1CCN(Cc2ccc3cc(Oc4ncc(-c5ccn[nH]5)cn4)ccc3c2)CC1 [Example 41, 2-Methyl-1-(4-{6-[5-(2H-pyrazol-3-yl)-pyrimidin-2-yloxy]-naphthalen-2-ylmethyl}-piperazin-1-yl)-propan-1-one] | 0.97 nM | 430 nM
O=C(C1CC(O)C1)N1CCN(Cc2ccc3cc(Oc4ccc(-c5ccn[nH]5)cn4)ccc3n2)CC1 (stereo not shown) [Example 139, (3-Hydroxy-cyclobutyl)-(4-{6-[5-(2H-pyrazol-3-yl)-pyridin-2-yloxy]-quinolin-2-ylmethyl}-piperazin-1-yl)-methanone] | 3 nM | 500 nM
CO[C@@H](C)C(=O)N1CCN(Cc2ccc3cc(Oc4ccc(-c5ccn[nH]5)cn4)ccc3n2)CC1 [Example 118, (S)-2-Methoxy-1-(4-{6-[5-(2H-pyrazol-3-yl)-pyridin-2-yloxy]-quinolin-2-ylmethyl}-piperazin-1-yl)-propan-1-one] | 0.67 nM | 170 nM
O=C1[C@@H](O)CCN1C1CCN(C[C@@H]2Cc3ccc(Oc4ccc(-c5ccn[nH]5)cn4)cc3O2)CC1 [Example 61, (S)-3-Hydroxy-1-(1-{(S)-6-[5-(2H-pyrazol-3-yl)-pyridin-2-yloxy]-2,3-dihydro-benzofuran-2-ylmethyl}-piperidin-4-yl)-pyrrolidin-2-one] | 1.2 nM | 220 nM
O=C(C1CC1)N1CCN(Cc2ccc3cc(Oc4ncc(-c5ccn[nH]5)cn4)ccc3c2)CC1 [Example 40, Cyclopropyl-(4-{6-[5-(2H-pyrazol-3-yl)-pyrimidin-2-yloxy]-naphthalen-2-ylmethyl}-piperazin-1-yl)-methanone] | 1.8 nM | 340 nM
O=C1[C@@H](O)CCN1C1CCN(C[C@H]2Cc3ccc(Oc4ccc(-c5ccn[nH]5)cn4)cc3O2)CC1 [Example 62, (S)-3-Hydroxy-1-(1-{(R)-6-[5-(2H-pyrazol-3-yl)-pyridin-2-yloxy]-2,3-dihydro-benzofuran-2-ylmethyl}-piperidin-4-yl)-pyrrolidin-2-one] | 0.77 nM | 340 nM
N#CC1(C(=O)N2CCN(Cc3ccc4cc(Oc5ccc(-c6ccn[nH]6)cn5)ccc4n3)CC2)CCOCC1 [Example 148, 4-(4-{6-[5-(2H-Pyrazol-3-yl)-pyridin-2-yloxy]-quinolin-2-ylmethyl}-piperazine-1-carbonyl)-tetrahydro-pyran-4-carbonitrile] | 7.9 nM | 1100 nM
CC[C@H](O)C(=O)N1CCN(Cc2ccc3cc(Oc4ccc(-c5ccn[nH]5)cn4)ccc3n2)CC1 [Example 127, (S)-2-Hydroxy-1-(4-{6-[5-(2H-pyrazol-3-yl)-pyridin-2-yloxy]-quinolin-2-ylmethyl}-piperazin-1-yl)-butan-1-one] | 2.3 nM | 320 nM
CC(=O)N1CCC(NCc2coc3cc(Oc4ccc(-c5ccn[nH]5)cn4)ccc23)CC1 [Example 108, 1-[4-({6-[5-(2H-Pyrazol-3-yl)-pyridin-2-yloxy]-benzofuran-3-ylmethyl}-amino)-piperidin-1-yl]-ethanone] | 0.71 nM | 180 nM
CN(C(=O)CO)[C@H]1CCN(Cc2ccc3cc(Oc4ccc(-c5ccn[nH]5)cn4)ccc3n2)C1 [Example 99] | 0.86 nM | 140 nM
OC1CC2(C1)CN(Cc1ccc3cc(Oc4ccc(-c5ccn[nH]5)cn4)ccc3c1)C2 [Example 10, 2-{6-[5-(2H-Pyrazol-3-yl)-pyridin-2-yloxy]-naphthalen-2-ylmethyl}-2-aza-spiro[3.3]heptan-6-ol] | 0.48 nM | 150 nM
CC(C#N)C(=O)N1CCN(Cc2ccc3cc(Oc4ccc(-c5ccn[nH]5)cn4)ccc3n2)CC1 (stereo not shown) [Example 149, 2-Methyl-3-oxo-3-(4-{6-[5-(2H-pyrazol-3-yl)-pyridin-2-yloxy]-quinolin-2-ylmethyl}-piperazin-1-yl)-propionitrile] | 0.47 nM | 200 nM
